{"source": "patent US20250302817A1", "about": "“METHODS FOR TREATING PTEN-MUTANT TUMORS” (Icahn School of Medicine at Mount Sinai, priority 2016, published 2025)", "key": {"PI3K signaling": {"system": "PI3K signaling", "experiment": "Immunoblot of pAKT in Pten KO and WT cells", "assay_type": "cell-based", "settings": "50 μM A771726", "protocol": "Note that here as well as in FIG. 2, H-I, a large amount of DMSO was used in each condition to match the amount of orotate needed, narrowing the growth differential normally observed between leflunomide-treated and untreated cells in the PTEN mutant setting. FIG. 8B is a bar graph and immunoblot depicting cells transfected with siRNA against DHODH. The bar graph depicts cell viability measured using annexin V and 7AAD. 0.5 μg/mL actinomycin D was a positive control for cell death. (Students t-test, *p<0.05, n=3). […] FIG. 8C is an immunoblot of DHODH in Pten KO and WT cells. FIG. 8D is an immunoblot of pAKT in Pten KO and WT cells with or without treatment with 50 μM A771726. FIG. 8E and FIG. 8F are bar graphs depicting the GI50s of cells treated with dose titrations of 5-fluorouracil or mercaptopurine, respectively (Student's t-test, p>0.05, n=3). FIG. 8G depicts the confluence of prostate cells grown in media containing full glutamine (4 mM) or no added glutamine. Data shown as means±SD.\nSamples were lysed in 2× Laemelli sample buffer with mercaptoethanol and were boiled before separation by SDS-PAGE on Tris-Glycine gels (Invitrogen EC60352). Wet-transfer to PVDF (Fisher ipvh00010) was followed by blocking for 1 hour in 10% nonfat milk (Fisher M-0841) in TBST. […]"}, "CYP2C19": {"molecular_target": "T1, CYP2C19 (Homo sapiens, UniProt P33261)", "T1 construct": "omeprazole (a CYP2C19 substrate); host or cells: human subjects, in vivo", "T1 sequence (P33261 whole entry)": "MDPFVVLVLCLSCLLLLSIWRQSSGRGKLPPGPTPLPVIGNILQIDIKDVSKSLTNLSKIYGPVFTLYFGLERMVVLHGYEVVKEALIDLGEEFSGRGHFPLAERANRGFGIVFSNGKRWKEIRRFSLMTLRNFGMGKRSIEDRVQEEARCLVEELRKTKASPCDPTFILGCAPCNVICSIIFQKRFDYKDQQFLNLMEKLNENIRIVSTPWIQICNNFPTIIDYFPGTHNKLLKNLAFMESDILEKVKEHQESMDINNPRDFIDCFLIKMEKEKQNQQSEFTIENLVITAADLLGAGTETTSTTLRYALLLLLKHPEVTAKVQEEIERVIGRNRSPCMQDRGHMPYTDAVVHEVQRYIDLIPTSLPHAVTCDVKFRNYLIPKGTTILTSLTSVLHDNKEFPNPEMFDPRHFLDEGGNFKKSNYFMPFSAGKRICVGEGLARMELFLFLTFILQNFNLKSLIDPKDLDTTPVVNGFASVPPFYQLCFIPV", "settings": "in vivo; cited from earlier work"}, "CYP2B6": {"molecular_target": "T2, CYP2B6 (Homo sapiens, UniProt P20813)", "T2 construct": "host or cells: human subjects, in vivo", "T2 sequence (P20813 whole entry)": "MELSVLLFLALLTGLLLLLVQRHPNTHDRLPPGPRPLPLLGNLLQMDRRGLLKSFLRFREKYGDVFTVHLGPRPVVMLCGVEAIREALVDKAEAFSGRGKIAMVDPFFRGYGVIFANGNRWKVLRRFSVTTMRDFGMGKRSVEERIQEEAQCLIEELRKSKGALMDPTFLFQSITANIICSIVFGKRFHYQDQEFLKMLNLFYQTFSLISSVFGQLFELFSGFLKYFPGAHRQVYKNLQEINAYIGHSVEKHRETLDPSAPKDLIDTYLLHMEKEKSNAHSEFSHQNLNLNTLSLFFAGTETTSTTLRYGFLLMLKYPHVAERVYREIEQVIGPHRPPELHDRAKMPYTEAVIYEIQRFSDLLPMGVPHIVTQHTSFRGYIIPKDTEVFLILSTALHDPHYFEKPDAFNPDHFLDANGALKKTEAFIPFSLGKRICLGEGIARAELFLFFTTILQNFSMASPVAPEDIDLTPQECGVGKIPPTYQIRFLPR", "settings": "in vivo; cited from earlier work"}, "Pten^−/− and WT MEFs": {"system": "Pten^−/− and WT MEFs", "experiment": "Drug response assay (GI50 dose titration) in Pten WT and KO MEFs", "assay_type": "cell-based, mouse", "settings": "GI50 dose titration (FIG. 2A)", "protocol": "FIG. 2F is a graph comparing various human breast cancer cell line growth rates. FIG. 2G is a series of immunoblots of pAKT in nuclear fractions of Pten^−/− and Pik3ca mutant MEFs. […] Data shown as mean+SD.\n1500 cells per well (mouse cells) or 3000 cells per well (human cells) were plated in 96-well plates (Corning 720089). Growth rates were determined using the phase-confluency readings on an IncuCyte ZOOM (Essen Biosciences) on live cells over time.\nCells were plated in 96-well plates at a density of 1500 or 3000 cells per well. […] Sensitivity was determined by a dose-response titration for each cell line, with an equivalent amount of DMSO in each well. For cell death assays, DRAQ7™ (Cell Signaling 7406S) was added to the media at a 1:200 dilution and red fluorescence was measured in addition to phase in live-cell imaging to measure accumulation of dead cells. An IncuCyte ZOOM was used."}, "albumin": {"molecular_target": "T3, albumin (Homo sapiens, UniProt P02768)", "T3 construct": "host or cells: human subjects (circulating albumin)", "T3 sequence (P02768 25-609)": "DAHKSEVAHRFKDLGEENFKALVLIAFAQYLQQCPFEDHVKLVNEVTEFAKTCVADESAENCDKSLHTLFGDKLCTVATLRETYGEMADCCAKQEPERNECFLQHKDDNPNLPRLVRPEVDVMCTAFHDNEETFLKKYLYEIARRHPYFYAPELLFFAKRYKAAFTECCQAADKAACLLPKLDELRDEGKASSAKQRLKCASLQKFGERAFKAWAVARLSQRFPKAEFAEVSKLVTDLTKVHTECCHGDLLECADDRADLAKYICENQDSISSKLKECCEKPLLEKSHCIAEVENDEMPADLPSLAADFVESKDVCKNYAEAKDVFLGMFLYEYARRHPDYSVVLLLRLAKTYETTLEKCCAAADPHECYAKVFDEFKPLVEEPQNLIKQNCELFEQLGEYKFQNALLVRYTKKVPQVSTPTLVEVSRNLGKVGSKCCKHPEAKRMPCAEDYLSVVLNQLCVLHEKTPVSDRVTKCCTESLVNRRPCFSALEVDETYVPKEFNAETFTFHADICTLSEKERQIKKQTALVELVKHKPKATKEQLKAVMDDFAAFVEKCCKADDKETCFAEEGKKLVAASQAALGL", "settings": "cited from earlier work"}, "[1]": {"settings": "healthy subjects; cited from earlier work"}, "[2]": {"system": "BCRP transporter and organic anion transporting polypeptide 1B1 and 1B3 (OATP1B1/1B3)", "settings": "repeated doses of teriflunomide; cited from earlier work"}, "[3]": {"settings": "cited from earlier work; for median t½: healthy volunteers and MS patients"}, "[4]": {"settings": "without accelerated elimination procedure"}}, "note": "Where two headings read alike, the source gives them in different places.", "data": [{"compound": "C/C(O)=C(\\C#N)C(=O)Nc1ccc(C(F)(F)F)cc1", "note": "[teriflunomide, (Z)-2-Cyano-3-hydroxy-but-2-enoic acid-(4trifluoromethylphenyl)-amide]", "values": [{"measurement": "effect on PI3K signaling (pAKT immunoblot)", "setting": "PI3K signaling", "result": "did not affect PI3K signaling"}, {"measurement": "effect on pharmacokinetics of omeprazole (a CYP2C19 substrate)", "setting": "CYP2C19", "result": "does not affect the pharmacokinetics"}, {"measurement": "effect on pharmacokinetics of bupropion (a CYP2B6 substrate)", "setting": "CYP2B6", "result": "does not affect the pharmacokinetics"}, {"measurement": "sensitivity of Pten^−/− MEFs compared with WT MEFs", "setting": "Pten^−/− and WT MEFs", "result": "more sensitive"}, {"measurement": "bound to albumin", "setting": "albumin; healthy subjects", "result": "> 99.3", "unit": "%"}, {"measurement": "free fraction of teriflunomide", "setting": "albumin; patients with chronic renal failure", "result": "approximately doubled"}, {"measurement": "free fraction of teriflunomide", "setting": "albumin; patients with rheumatoid arthritis", "result": "slightly higher"}, {"measurement": "protein binding linearity", "setting": "albumin; therapeutic concentrations", "result": "linear"}, {"measurement": "QT interval prolongation", "setting": "[1]", "result": "no evidence that teriflunomide caused QT interval prolongation of clinical significance"}, {"measurement": "upper bound of the 90% confidence interval for the largest placebo-adjusted, baseline-corrected QTc", "setting": "[1]", "result": "below 10 ms"}, {"measurement": "increase in mean rosuvastatin AUC", "setting": "[2]", "result": 2.51, "unit": "fold"}, {"measurement": "increase in mean rosuvastatin Cmax", "setting": "[2]", "result": 2.65, "unit": "fold"}, {"measurement": "effect of food on teriflunomide pharmacokinetics", "setting": "[3]; human, in vivo", "result": "does not have a clinically relevant effect"}, {"measurement": "time to reach steady-state concentrations", "setting": "[3]; human, in vivo", "result": "approximately 3 months"}, {"measurement": "volume of distribution (Vss)", "setting": "[3]; human, in vivo", "result": 0.13, "unit": "L/kg"}, {"measurement": "administered dose excreted via feces", "setting": "[3]; over 21 days", "result": 37.5, "unit": "%"}, {"measurement": "administered dose excreted via feces and urine", "setting": "[3]; over 21 days", "result": 60.1, "unit": "%"}, {"measurement": "administered dose excreted via urine", "setting": "[3]; over 21 days", "result": 22.6, "unit": "%"}, {"measurement": "clearance rate less in females than in males", "setting": "[3]; population analysis", "result": 23, "unit": "%"}, {"measurement": "increase in clearance, smokers over non-smokers", "setting": "[3]; population-based pharmacokinetic analysis of phase III data", "result": 38, "unit": "%"}, {"measurement": "median t½", "setting": "[3]; repeated doses of 7 mg", "result": "approximately 18 days"}, {"measurement": "median t½", "setting": "[3]; repeated doses of 14 mg", "result": "~19", "unit": "days"}, {"measurement": "estimated AUC accumulation ratio", "setting": "[3]; repeated doses of 7 or 14 mg", "result": "approximately 30"}, {"measurement": "total body clearance", "setting": "[3]; single IV administration", "result": 30.5, "unit": "mL/h"}, {"measurement": "time to reach plasma concentrations less than 0.02 mg/L, longest (individual variations in drug clearance)", "setting": "[3]; [4]", "result": "≤ 2", "unit": "years"}, {"measurement": "time to reach plasma concentrations less than 0.02 mg/L, on average", "setting": "[3]; [4]", "result": 8, "unit": "months"}]}]}
